Measured values: US20030219494A1, “Compositions and methods of using them” (priority 2002, published 2003)
Like-named read-outs stand apart in the source and are kept apart here.

Legend:
[1] = tested on: tactile allodynia in STZ-diabetic DA rats; experiment: baseline von Frey paw withdrawal thresholds in STZ-diabetic rats given dietary L-arginine; format: in vivo, rat
Source text: Filaments were calibrated daily before undertaking antinociceptive testing.

[2] = tested on: mechanical allodynia in STZ-diabetic DA rats; experiment: von Frey antinociception (relief of mechanical allodynia) after single s.c. opioid in STZ-diabetic DA rats, standard chow or dietary L-arginine; settings: for ED50: Rattus norvegicus, sc; for peak antinociception / time of decline of antinociception to baseline levels (<20% MPE) / time to peak antinociception: 3 wks post-STZ
Procedure: Deep and stable anaesthesia was induced with a mixture of ketamine (100 mg/kg, i.p.) and xylazine (16 mg/kg, i.p.) to facilitate insertion of a polyethylene cannula (previously filled with 0.1 ml of sterile saline) into the right common jugular vein. Jugular vein cannulae were tested for correct placement by the withdrawal of a small amount of blood. Diabetes was induced following an acute i.v. injection of streptozotocin (STZ) (85 mg/kg) in 0.1 M citrate buffer (pH 4.5) into the jugular vein.
Naïve non-diabetic rats (n=36) were used in the control experiments. Following STZ administration, benzylpenicillin (60 mg, s.c.) was administered to prevent infection and rats were monitored closely during surgical recovery. Rats were then housed singly or in pairs for period of 3 wks to 38 wks, depending upon the study cohort to which they belonged.
(§1) Multiple aliquots of these stock solutions were stored at −20° C. until required. […] Whilst under light anaesthesia with CO2/O2 (50:50%), rats received a single s.c. injection (100 μL) of one opioid or vehicle (saline) into the dorsal region of the base of the neck, using a 250 μL Hamilton syringe.
(§2) Mechanical allodynia, the distinguishing feature of diabetic neuropathic pain, was quantified using von Frey filaments. Rats were placed in a metabolic cage (20 cm×20 cm×20 cm) with a metal mesh floor and allowed to acclimatise for approximately 10 min. von Frey filaments were used to quantify the lowest mechanical threshold required for a brisk paw withdrawal reflex. The force was applied to the plantar surface of the left hindpaw and held until the filament buckled slightly. The absence of a response after 5 s prompted application of the next filament of increasing force. Filaments available for use included those that produced a buckling weight of 2, 4, 5, 6, 8, 10, 12, 14, 16, and 18 g. Filaments were calibrated daily before undertaking antinociceptive testing. […] Pre-drug (opioid or saline) responses were the mean of three readings taken ≈5 min apart. Assessment of von Frey filament responsiveness was determined at the following times post-opioid (or saline) administration: 15, 30, 45, 60, 90, 120 and 180 min.
(§3) The von Frey scores for individual rats were converted to the Percentage of the Maximum Possible Antinociceptive Effect (% MPE), according to the formula: [formula]
(§4) The mean (±SEM) percentage maximum AUC (% Max AUC) was calculated according to the following formula: [formula]
(§5) ED50 estimation was facilitated by the inclusion of theoretical maximum and minimum % Max AUC values.
This study comprised three groups of STZ-diabetic DA rats. […] Subsequent doses were chosen to facilitate construction of dose-response curves for the alleviation of tactile allodynia. Antinociception was quantified using calibrated von Frey filaments.
At 9 wks post-STZ administration, Group 1 STZ-diabetic rats received a dietary intervention of an L-arginine supplement (1 g per day) incorporated into rat chow, until the end of the 24 wk study period.
At 14 wks post-STZ administration, a dietary intervention comprising L-arginine supplementation (1 g per day in rat chow) was initiated which was continued for another 8 wks.
At 30 wks post-STZ administration, dietary L-arginine supplementation (1 g/day in rat chow) was initiated and continued for 8 wks.

[3] = body weight of STZ-diabetic rats given dietary L-arginine; format: in vivo, rat
Source text: Group 3 STZ-diabetic rats, (n=6, 224.7±2.9 g, mean±SEM) were the same rats used in Example 1 above. […] At 30 wks post-STZ administration, dietary L-arginine supplementation (1 g/day in rat chow) was initiated and continued for 8 wks.

[4] = body weight of control non-diabetic rats given dietary L-arginine; format: in vivo, rat; settings: control non-diabetic rats after 1 wk dietary L-arginine
Source text: Importantly, since diabetic rats eat twice as much as naïve control non-diabetic rats, the concentration of L-arginine in rat chow administered to control non-diabetic rats was doubled to maintain consistent L-arginine dosing between the STZ-diabetic rats and the control non-diabetic rats.

[5] = tested on: naïve control non-diabetic DA rats; experiment: von Frey antinociception after single s.c. opioid in control non-diabetic DA rats; format: in vivo, rat; settings: for ED50: s.c.
Procedure: as §1, §2, §3, §4, §5
Weight-matched naïve control DA rats received dietary L-arginine supplementation (1 g per day in rat chow) for at least 1 wk prior to acute opioid administration and concomitant antinociceptive testing. Importantly, since diabetic rats eat twice as much as naïve control non-diabetic rats, the concentration of L-arginine in rat chow administered to control non-diabetic rats was doubled to maintain consistent L-arginine dosing between the STZ-diabetic rats and the control non-diabetic rats.

naïve Dark Agouti rats = settings: s.c., tail flick test; cited from earlier work
[6] = tested on: rats with a chronic constriction injury (CCI) of the sciatic nerve; settings: relief of mechanical allodynia; cited from earlier work
[7] = Group 1, 12 wks post-STZ (3 wks L-arginine)
[8] = Group 2, 18 wks post-STZ (4 wks L-arginine)
[9] = Group 2, 22 wks post-STZ (8 wks L-arginine)
[10] = Group 3, 34 wks post-STZ (4 wks L-arginine)
[11] = Group 3, 38 wks post-STZ (8 wks L-arginine)
[12] = 3 wks supplementation, 9 to 12 wks post-STZ
[13] = 24 wks post-STZ / full 24 wk study period, standard chow
[14] = 504 h, read-out: Mean (±SEM) ED50, STZ-diabetic rats 3 wks post-STZ, standard chow, s.c.
[15] = 1512 h, STZ-diabetic rats at 3 and 9 wks post-STZ, standard chow
[16] = 1512 h, read-out: Mean (±SEM) ED50, STZ-diabetic rats 9 wks post-STZ, standard chow (before L-arginine), s.c.
[17] = STZ-diabetic rats 12 wks post-STZ after 3 wks dietary L-arginine (1 g/day), s.c.
[18] = STZ-diabetic rats 24 wks post-STZ after 15 wks dietary L-arginine (1 g/day), s.c.
[19] = Rattus norvegicus, sc, control naïve non-diabetic rats, standard chow, von Frey % Max AUC, read-out: Mean (±SEM) ED50

Compound: N=C(N)NCCC[C@H](N)C(=O)O [L-arginine]
- paw withdrawal threshold ([1]; Group 1, 9 wks post-STZ (start of dietary L-arginine 1 g/day)): 6.8 (±0.3) g
- paw withdrawal threshold [1, 7]: 4.3 (±0.1) g
- paw withdrawal threshold ([1]; Group 1, 24 wks post-STZ (15 wks L-arginine)): 5.2 (±0.1) g
- paw withdrawal threshold [1, 8]: 4.9 (±0.2) g
- paw withdrawal threshold [1, 9]: 6.1 (±0.4) g
- paw withdrawal threshold [1, 10]: 3.9 (±0.2) g
- paw withdrawal threshold [1, 11]: 5.0 (±0.2) g
- effect of dietary L-arginine on morphine's antinociceptive efficacy [2, 12]: prevented the abolition
- effect of dietary L-arginine on oxycodone potency [2, 12]: prevented the 2-fold decrease
- effect of dietary L-arginine on antinociceptive potency of morphine ([2]; 4 wks supplementation (30 to 34 wks post-STZ), Group 3): partially restored
- effect of dietary L-arginine on antinociceptive efficacy of s.c. morphine (6.1 mg/kg) ([2]; 4 wks supplementation, Group 2, 18 wks post-STZ): restored
- effect of late-initiated dietary L-arginine on morphine efficacy ([2]; started 14 and 30 wks post-STZ (groups 2 and 3), after as little as 4 wks): restored morphine efficacy
- mean (±SEM) body weight [3, 7]: 229.0 (±6.0) g
- mean (±SEM) body weight ([3]; Group 1, 16 wks post-STZ (7 wks L-arginine)): 218.0 (±7.2) g
- mean (±SEM) body weight ([3]; Group 1, 20 wks post-STZ (11 wks L-arginine), n=6): 253.4 (±9.9) g
- mean (±SEM) body weight ([3]; Group 1, 24 wks post-STZ (15 wks L-arginine), n=25): 234.5 (±5.1) g
- mean (±SEM) body weight [3, 8]: 203.2 (±6.4) g
- mean (±SEM) body weight [3, 9]: 220.9 (±11.6) g
- mean (±SEM) body weight [3, 10]: 207.8 (±10.7) g
- mean (±SEM) body weight [3, 11]: 221.7 (±11.7) g
- mean (±SEM) body weight [4]: 236.3 g

Compound: CN1CC[C@]23c4c5ccc(O)c4O[C@H]2[C@@H](O)C=C[C@H]3[C@H]1C5 [morphine]
- antinociceptive efficacy [2, 13]: remained completely abolished
- ED50 [2, 14]: 6.1 mg/kg
- ED50 [2, 15]: 6.1 ± 0.3 mg/kg
- ED50 [2, 16]: 6.1 mg/kg
- ED50 [2, 17]: 7 ± 0.5 mg/kg
- ED50 [2, 18]: 5 ± 0.9 mg/kg
- Mean (±SEM) ED50 ([2]; STZ-diabetic rats 12 wks post-STZ, standard chow, s.c.): No efficacy
- Mean (±SEM) ED50 ([2]; STZ-diabetic rats 24 wks post-STZ, standard chow, s.c.): No efficacy
- peak antinociception ([2]; morphine 4 mg/kg s.c.): 70 % MPE
- time of decline of antinociception to baseline levels (<20% MPE) ([2]; morphine 4 mg/kg s.c.): ≤ 90 min
- time to peak antinociception ([2]; morphine 4 mg/kg s.c.): ≤ 15 min
- antinociceptive efficacy ([2]; morphine 6.1 mg/kg s.c., 14 wks post-STZ, before L-arginine (Group 2)): completely abolished
- efficacy for the relief of mechanical allodynia ([2]; morphine 6.1 mg/kg s.c., 16 wks post-STZ, 7 wks dietary L-arginine): maintained
- antinociceptive efficacy ([2]; morphine 14.2 mg/kg s.c., 12 wks post-STZ): remained completely abolished
- antinociception ([2]; morphine 18 mg/kg s.c., 12 wks post-STZ): absence of antinociception
- behavioural side effects ([2]; morphine 18 mg/kg s.c., STZ-diabetic rats 12 wks post-STZ (myoclonus, biting of cage)): mild neuro-excitatory behaviours
- antinociceptive efficacy ([2]; morphine s.c., 24 wks post-STZ, 15 wks dietary L-arginine): maintained
- potency for relief of mechanical allodynia as percent of that in control non-diabetic rats ([2]; morphine, STZ-diabetic rats, 11 wks dietary L-arginine (20 wks post-STZ)): ≈ 90%
- ED50 [5, 19]: 2.4 mg/kg
- ED50 ([5]; control non-diabetic rats, dietary L-arginine 1 g/day for 1 wk): does not differ significantly

Compound: COc1ccc2c3c1O[C@H]1C(=O)CC[C@@]4(O)[C@@H](C2)N(C)CC[C@]314 [oxycodone]
- antinociceptive efficacy/potency ([2]; 12 wks post-STZ, standard chow, s.c.): maintained
- antinociceptive efficacy [2, 13]: maintained
- ED50 [2, 14]: 2 mg/kg
- ED50 [2, 15]: 2.1 ± 0.4 mg/kg
- ED50 [2, 16]: 2.1 mg/kg
- ED50 ([2]; 2016 h, read-out: Mean (±SEM) ED50, STZ-diabetic rats 12 wks post-STZ, standard chow, s.c.): 4.1 mg/kg
- ED50 ([2]; 4032 h, read-out: Mean (±SEM) ED50, STZ-diabetic rats 24 wks post-STZ, standard chow, s.c.): 4.2 mg/kg
- ED50 [2, 17]: 2 ± 0.3 mg/kg
- ED50 [2, 18]: 1.8 ± 0.3 mg/kg
- potency relative to morphine for alleviation of mechanical allodynia ([2]; STZ-diabetic rats 3 wks post-STZ, s.c.): ≈ 3 times
- decrease in potency between 9 and 12 wks post-STZ ([2]; STZ-diabetic rats, standard chow): 2 fold
- decrease in antinociceptive potency relative to control non-diabetic rats ([2]; at 12 wks post-STZ, unchanged at 24 wks, standard chow): 4 fold
- rightward shift in the dose-response curve versus non-diabetic rats ([2]; by 3 wks post-STZ): ≈ 1.7 fold
- decrease in potency relative to weight-matched control non-diabetic rats ([2]; by 9 wks post-STZ): ≈ 2 fold
- peak antinociception ([2]; oxycodone 1.7 mg/kg s.c.): 90 % MPE
- time of decline of antinociception to baseline levels (<20% MPE) ([2]; oxycodone 1.7 mg/kg s.c.): ≤ 120 min
- time to peak antinociception ([2]; oxycodone 1.7 mg/kg s.c.): ≤ 30 min
- % MPE AUC ([2]; oxycodone 2.0 mg/kg s.c., 9 wks post-STZ, standard chow): 108.7±13.2 % MPE-h
- % MPE AUC ([2]; oxycodone 2.0 mg/kg s.c., 12 wks post-STZ, standard chow): 37.0±1.1 % MPE-h
- % MPE AUC (±SEM) ([2]; oxycodone 2.0 mg/kg s.c., 20 wks post-STZ, 11 wks dietary L-arginine (Group 1)): 160.3±7.6 % MPE-h
- % MPE AUC ([2]; oxycodone 2.0 mg/kg s.c., 22 wks post-STZ, 8 wks dietary L-arginine (Group 2)): 139.4±9.4 MPE-h
- % MPE AUC ([2]; oxycodone 2.0 mg/kg s.c., 38 wks post-STZ, 8 wks dietary L-arginine (Group 3)): 147.0±1.9 % MPE-h
- % MPE AUC ([2]; oxycodone 4.0 mg/kg s.c., 24 wks post-STZ, standard chow): 144.0±13.7 MPE-h
- potency for relief of mechanical allodynia as percent of that in diabetic rats on standard chow at 9 wks post-STZ ([2]; oxycodone, 11 wks dietary L-arginine (20 wks post-STZ)): ≈ 150%
- potency relative to morphine (naïve Dark Agouti rats): ≈ 3 times
- potency relative to morphine [6]: ≈ 4 times
- ED50 ([5]; Rattus norvegicus, sc, 168 h, control non-diabetic rats, dietary L-arginine 1 g/day for 1 wk, read-out: ED50): 1 ± 0.1 mg/kg
- ED50 [5, 19]: 1.2 mg/kg
- potency relative to morphine ([5]; printed: at 3 and 9 wks post-STZ, s.c. route, naïve non-diabetic rats): ≈ 2 fold
